From patent publication US8512752B2, “Hyaluronic acid derivatives obtained via “click chemistry” crosslinking” (Fidia Farmaceutici S.p.A., priority 2006, dated 2013)
Where a name gives a salt, the structure may show the parent alone.

Columns and labels:
Format in all cases: physicochemical
[1] = release of benzydamine hydrochloride from hydrogel of crosslinked hyaluronic acid obtained with catalytic CuCl; conditions: hydrogel of HA (product 1 + product 2) crosslinked with catalytic CuCl, Example 11; release in 100 ml phosphate buffer solution pH=7.4
Method: 69 mg of benzydamine hydrochloride are dissolved in 2 ml of water and 50 mg of product 1 and 50 mg of product 2 synthesized as described above, are then added.
830 μL of a 1% w/V solution of CuCl are subsequently added to the solution and the gel is formed after a few minutes directly incorporating the drug.
(§1) The quantity of benzydamine hydrochloride released from the hydrogel, in 100 ml of a phosphate buffer solution pH=7.4, is determined by means of U.V. spectrophotometric measurements at λ=308 nm by interpolation of the absorbance values on a calibration line constructed using solutions of the drug at a known concentration.
(§2) The release measurements of the drug are performed on the hydrogel described above.

[2] = release of benzydamine hydrochloride from hydrogel of crosslinked hyaluronic acid obtained with catalytic CuSO4.5H2O; conditions: hydrogel of HA (product 1 + product 2) crosslinked with catalytic CuSO4.5H2O and ascorbic acid, Example 11; release in 100 ml distilled water
Method: 50 mg of product 1 and 50 mg of product 2 are dissolved in 1.3 ml of distilled water and separately 13.8 mg of benzydamine hydrochloride are dissolved in 0.5 ml of distilled water. The solution of hyaluronic acid is mixed with that of benzydamine hydrochloride; 0.1 ml of an aqueous solution obtained with 50 mg of CuSO4.5H2O in 1 ml of H2O and 0.1 ml of an aqueous solution of 20 mg of ascorbic acid are then added.
The mixture is stirred vortically for a few minutes. The rapidly formed gel incorporates the benzydamine hydrochloride inside.
as §1, with “distilled water,” for “a phosphate buffer solution pH=7.4,”, “at” for “at a”
as §2

[3] = release of benzydamine hydrochloride from hydrogel of hyaluronic acid with 1,6-Heptadiyne; conditions: hydrogel of HA (product 1) with 1,6-heptadiyne, catalytic CuSO4.5H2O and ascorbic acid, Example 13; release in 100 ml distilled water
Method: (§3) 100 mg of product 1 are dissolved in 1.1 ml of distilled water; a solution of 140 μl of 1,6-Heptadiyne in 9.86 ml of DMSO are prepared separately, whereas 13.8 mg of benzydamine hydrochloride are dissolved in 0.5 ml of distilled water. The solution of hyaluronic acid is mixed with that of benzydamine and with 0.2 ml of that of 1,6-Heptadiyne; 0.1 ml of an aqueous solution obtained with 50 mg of CuSO4.5H2O in 1 ml of H2O and 0.1 mL of an aqueous solution of 20 mg of ascorbic acid are then added. The mixture is stirred vortically for a few minutes. The rapidly formed gel incorporates the benzydamine hydrochloride inside.
as §1, with “distilled water,” for “a phosphate buffer solution pH=7.4,”, “at” for “at a”

[4] = release of doxorubicin hydrochloride from hydrogel of crosslinked hyaluronic acid obtained with catalytic CuCl; conditions: hydrogel of HA (product 1 + product 2) crosslinked with catalytic CuCl, Example 11; release in 100 ml distilled water
Method: 29 mg of doxorubicin hydrochloride are dissolved in 2 ml of water and 50 mg of product 1 and 50 mg of product 2 synthesized as described above, are then added. 830 μL of a 1% w/V solution of CuCl are subsequently added to the solution and the gel is formed after a few minutes directly incorporating the drug present in solution.
(§4) The quantity of doxorubicin hydrochloride released from the hydrogel in 100 ml of distilled water, is determined by U.V. spectrophotometric measurements at λ=486 nm by interpolation of the absorbance values on a calibration line constructed using solutions of the drug at known concentration.
as §2

[5] = release of doxorubicin hydrochloride from hydrogel of hyaluronic acid with 1,4-diethynylbenzene; conditions: hydrogel of HA (product 1) with 1,4-diethynylbenzene, catalytic CuSO4.5H2O and ascorbic acid, Example 13; release in 100 ml distilled water
Method: 100 mg of product 1 are dissolved in 1.1 ml of distilled water and 3 mg of 1,4-Diethynylbenzene are dissolved separately in 0.2 ml of DMSO, whereas 23.2 mg of doxorubicin hydrochloride are dissolved in 0.5 ml of distilled water. The three solutions are mixed, 0.1 ml of an aqueous solution obtained with 50 mg of CuSO4.5H2O in 1 ml of H2O and 0.1 ml of an aqueous solution of 20 mg of ascorbic acid are then added. The mixture is stirred vortically for a few minutes. The rapidly formed gel (see FIG. 26) incorporates the doxorubicin hydrochloride inside.
as §4, with “from the hydrogel, in 100” for “from the hydrogel in 100”, “determined by means of U.V. spectrophotometric” for “determined by U.V. spectrophotometric”
The release measurements of the drug are effected on the hydrogel described above.

[6] = release of doxorubicin hydrochloride from hydrogel of hyaluronic acid with 1,6-heptadiyne; conditions: hydrogel of HA (product 1) with 1,6-heptadiyne, catalytic CuSO4.5H2O and ascorbic acid, Example 13; release in 100 ml distilled water
Method: as §3, with “23.2” for “13.8”, “doxorubicin” for “benzydamine”, “ml” for “mL”, “gel (see FIG. 28)” for “gel”
as §4, with “from the hydrogel, in 100” for “from the hydrogel in 100”, “determined by means of U.V. spectrophotometric” for “determined by U.V. spectrophotometric”

[7] = release of doxorubicin hydrochloride from hydrogel of hyaluronic acid with 1,8-Nonadiyne; conditions: hydrogel of HA (product 1) with 1,8-Nonadiyne, catalytic CuSO4.5H2O and ascorbic acid, Example 13; release in 100 ml distilled water
Method: 100 mg of product 1 are dissolved in 1.1 ml of distilled water; a solution of 200 μl of 1,8-Nonadiyne in 11.23 ml of DMSO are prepared separately, whereas 23.2 mg of doxorubicin hydrochloride are dissolved in 0.5 ml of distilled water. The solution of hyaluronic acid is mixed with that of doxorubicin and with 0.2 ml of that of 1,8-Nonadiyne; 0.1 ml of an aqueous solution obtained with 50 mg of CuSO4.5H2O in 1 ml of H2O and 0.1 ml of an aqueous solution of 20 mg of ascorbic acid are then added. The mixture is stirred vortically for a few minutes. The rapidly formed gel (see FIG. 31) incorporates the doxorubicin hydrochloride inside.
as §4, with “from the hydrogel, in 100” for “from the hydrogel in 100”, “determined by means of U.V. spectrophotometric” for “determined by U.V. spectrophotometric”
as §2

maximum quantity released, of the quantity of drug initially incorporated in the gel [1] | period over which the maximum quantity of drug is released [1] | maximum quantity released, of the quantity of drug initially incorporated in the gel [2] | period over which the maximum quantity of drug is released [2] | maximum quantity released, of the quantity of drug initially incorporated in the gel [3] | period over which the maximum quantity of drug is released [3] | maximum quantity released, of the quantity of drug initially incorporated in the gel [4] | period over which the maximum quantity of drug is released [4] | maximum quantity released, of the quantity of drug initially incorporated in the gel [5] | period over which the maximum quantity of drug is released [5] | maximum quantity released, of the quantity of drug initially incorporated in the gel [6] | period over which the maximum quantity of drug is released [6] | maximum quantity released, of the quantity of drug initially incorporated in the gel [7] | period over which the maximum quantity of drug is released [7] | Structure (SMILES)
88% | about 3.5 h | 70% | about 5 h | 80% | about 6 h | – | – | – | – | – | – | – | – | CN(C)CCCOc1nn(Cc2ccccc2)c2ccccc12 [benzydamine hydrochloride]
– | – | – | – | – | – | 25% | about 160 h | 50% | about 50 h | 23% | about 250 h | 14% | about 100 h | COc1cccc2c1C(=O)c1c(O)c3c(c(O)c1C2=O)C[C@@](O)(C(=O)CO)C[C@@H]3O[C@H]1C[C@H](N)[C@H](O)[C@H](C)O1 [doxorubicin hydrochloride]
